# According to patent US20230002352A1, “SULFONAMIDE DERIVATIVES AS CTPS1 INHIBITORS” (Step Pharma S.A.S., priority 2019, published 2023):
# pIC50: −log10 of the molar value.
# Target: T1, human CTPS1 (Homo sapiens, UniProt P17812)
# T1 construct: purchased Proteros biostructures GmbH
# T1 sequence (P17812 1-591): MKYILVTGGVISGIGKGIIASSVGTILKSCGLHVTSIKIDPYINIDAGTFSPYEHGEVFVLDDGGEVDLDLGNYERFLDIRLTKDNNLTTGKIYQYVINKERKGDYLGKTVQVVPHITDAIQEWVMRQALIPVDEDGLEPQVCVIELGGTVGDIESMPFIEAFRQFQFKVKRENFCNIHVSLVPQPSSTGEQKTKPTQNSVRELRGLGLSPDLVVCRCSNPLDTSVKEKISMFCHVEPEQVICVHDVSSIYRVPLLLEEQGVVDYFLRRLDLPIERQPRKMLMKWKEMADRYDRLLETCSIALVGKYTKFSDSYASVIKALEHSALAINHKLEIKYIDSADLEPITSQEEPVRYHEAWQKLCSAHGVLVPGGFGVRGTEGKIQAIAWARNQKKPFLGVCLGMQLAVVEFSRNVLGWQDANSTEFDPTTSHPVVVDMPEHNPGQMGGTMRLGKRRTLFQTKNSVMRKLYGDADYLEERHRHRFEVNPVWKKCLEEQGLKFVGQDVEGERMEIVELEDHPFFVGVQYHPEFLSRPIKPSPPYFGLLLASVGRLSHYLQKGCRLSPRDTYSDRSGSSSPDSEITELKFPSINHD
# Assay: Human CTPS1 enzyme inhibition (ADP-Glo Max assay)
# Assay type: biochemical
# Details: Table 23; ADP-Glo Max assay; read-out: CTPS1 (Human CTPS1 Enzyme Inhibition data grouped by potency range, IC50)
# Method: Biological Example 1—Human CTPS1 Enzyme Inhibition
# The enzyme inhibitory activities of compounds invented against the target of interest were determined using the ADP-Glo™ Max assay (Promega, UK). Assays for human CTPS1 were performed in 1× assay buffer containing 50 mM Tris, 10 mM MgCl2, 0.01% Tween-20, pH to 8.0 accordingly. Finally, immediately before use, L-cysteine was added to the 1× assay buffer to a final concentration of 2 mM. All reagents are from Sigma-Aldrich unless specified otherwise. Human full length active C-terminal FLAG-Hiss-tag CTPS1 (UniProtKB-P17812, CTPS[1-591]-[…]) was obtained from Proteros biostructures GmbH.
# 3× human CTPS1 protein was prepared in 1× assay buffer to the final working protein concentration required for the reaction. A 2 uL volume per well of 3× human CTPS1 protein was mixed with 2 uL per well of 3× test compound (compound prepared in 1× assay buffer to an appropriate final 3× compound concentration respective to the concentration response curve designed for the compounds under test) for 10 minutes at 25° C. The enzymatic reaction was then initiated by addition of a 2 uL per well volume of a pre-mixed substrate mix (UltraPure ATP from ADP-Glo™ Max kit (0.31 mM), GTP (0.034 mM), UTP (0.48 mM) and L-glutamine (0.186 mM)) and the mixture was incubated for an appropriate amount of time within the determined linear phase of the reaction at 25° C. under sealed plate conditions with constant agitation at 500 revolutions per minute (rpm). ADP-Glo™ Max reagent was added for 60 minutes (6 μL per well) and subsequently ADP-Glo™ Max development reagent was added for 60 minutes (12 uL per well) prior to signal detection in a microplate reader (EnVision® Multilabel Reader, Perkin Elmer). Following each reagent addition over the course of the assay, assay plates were pulse centrifuged for 30 seconds at 500 rpm.
# In all cases, the enzyme converts ATP to ADP and the ADP-Glo™ Max reagent subsequently depletes any remaining endogenous ATP in the reaction system. The ADP-Glo™ Max detection reagent converts the ADP that has been enzymatically produced back into ATP and using ATP as a substrate together with luciferin for the enzyme luciferase, light is generated which produces a detectable luminescence. […] The percentage inhibition produced by each concentration of compound was calculated using the equation shown below: […]
# Percentage inhibition was then plotted against compound concentration, and the 50% inhibitory concentration (IC50) was determined from the resultant concentration-response curve.
row,pIC50,Compound
1,6.00 to 7.00,CC(C)(C(=O)Nc1ccc(-c2cncc(Cl)c2)cc1)c1ccnc(NS(=O)(=O)C2CC2)n1 [Example P51]
2,≥ 7.00,CCC(F)(C(=O)Nc1ccc(-c2cncc(C3CC3)n2)cn1)c1ccnc(NS(=O)(=O)C2CC2)n1 (stereo not shown) [Example P150]
3,≥ 7.00,CCOc1cncc(-c2cnc(NC(=O)C(C)(C)c3ccnc(NS(=O)(=O)C4CC4)n3)c(F)c2)n1 [Example P27]
4,6.00 to 7.00,C=C(C)c1cncc(-c2ccc(NC(=O)C(C)(C)c3ccnc(NS(=O)(=O)C4CC4)n3)cc2)n1 [Example P131]
5,≥ 7.00,CC(C)(C(=O)Nc1ccc(-c2cncc(C(F)(F)F)n2)cc1F)c1ccnc(NS(=O)(=O)C2CC2)n1 [Example P37]
6,≥ 7.00,CCOc1cncc(-c2ccc(NC(=O)C(c3ccnc(NS(=O)(=O)C4CC4)n3)C(C)C)nc2)n1 (stereo not shown) [Example P154]
7,6.00 to 7.00,CCOc1cncc(-c2ccc(NC(=O)C(C)(C)c3ccnc(NS(=O)(=O)C4CCC4)n3)c(C)c2)n1 [Example P24]
8,5.00 to 6.00,CC(C)(C(=O)Nc1ccc(-c2cnccn2)cc1)c1ccnc(NS(=O)(=O)C2CC2)n1 [Example P71]
9,6.00 to 7.00,CCOc1cncc(-c2ccc(NC(=O)C(C)(C)c3ccnc(NS(=O)(=O)C4CCC4)n3)cc2)n1 [Example P26]
10,6.00 to 7.00,CC(C)(C(=O)Nc1ccc(-c2cncc(F)c2)cc1)c1ccnc(NS(=O)(=O)C2CC2)n1 [Example P53]
11,≥ 7.00,CCOc1cncc(-c2ccc(NC(=O)C(C)(C)c3ccnc(NS(=O)(=O)C4CC4)n3)cc2)n1 [Example P65]
12,6.00 to 7.00,COc1cncc(-c2ccc(NC(=O)C(C)(C)c3ccnc(NS(=O)(=O)C4CCC4)n3)cc2)n1 [Example P25]
13,6.00 to 7.00,CCOc1cncc(-c2ccc(NC(=O)C(C)(C)c3ccnc(NS(=O)(=O)C4CC4)n3)c(C)c2C)n1 [Example P44]
14,6.00 to 7.00,CCOc1cncc(-c2ccc(NC(=O)C(C)(C)c3ccnc(NS(=O)(=O)C4CC4)n3)nc2)c1 [Example P28]
15,≥ 7.00,CCOc1cncc(-c2cc(F)c(NC(=O)C(C)(C)c3ccnc(NS(=O)(=O)C4CC4)n3)c(F)c2)n1 [Example P41]
16,6.00 to 7.00,COc1cncc(-c2ccc(NC(=O)C(C)(C)c3ccnc(NS(=O)(=O)C4CC4)n3)cc2)c1 [Example P56]
17,≥ 7.00,CCOc1cncc(-c2ccc(NC(=O)C(C)(C)c3ccnc(NS(=O)(=O)C4CC4)n3)c(OC(F)(F)F)c2)n1 [Example P47]
18,6.00 to 7.00,"C=C(C)c1cncc(-c2ccc(NC(=O)C(C)(C)c3ccnc(NS(=O)(=O)C4CC4)n3)nc2)n1 [Example P122, 2-(2-(cyclopropanesulfonamido)pyrimidin-4-yl)-2-methyl-N-(5-(6-(prop-1-en-2-yl)pyrazin-2-yl)pyridin-2-yl)propanamide]"
19,≥ 7.00,CCC(F)(C(=O)Nc1ccc(-c2cncc(Cl)c2)cn1)c1ccnc(NS(=O)(=O)C2CC2)n1 (stereo not shown) [Example P149]
20,6.00 to 7.00,CCOc1cncc(-c2ccc(NC(=O)C(C)(C)c3ccnc(NS(=O)(=O)C4CCC4)n3)nc2)n1 [Example P22]

# Further lines, the compound ahead of its results:
row,Compound,pIC50
1,"CCOc1cncc(-c2ccc(C(=O)NC(CC)c3cncc(NS(=O)(=O)C4CC4)n3)c(F)c2)n1 (single isomer, unassigned) [Example P225]",≥ 7.00
2,CCOc1cncc(-c2ccc(NC(=O)C3(c4ccnc(NS(=O)(=O)C5CC5)n4)CCN(C(=O)OC(C)(C)C)CC3)nc2)n1 [Example P139],6.00 to 7.00
3,CC(C)(C(=O)Nc1ccc(-c2cccnc2)cn1)c1cccc(NS(=O)(=O)C2CC2)n1 [Example P175],5.00 to 6.00
4,CCOc1cncc(-c2ccc(NC(=O)C(C)(C)c3ccnc(NS(C)(=O)=O)n3)cc2)n1 [Example P81],≥ 7.00
5,COc1cncc(-c2ccc(NC(=O)Cc3cccc(NS(=O)(=O)C4CC4)n3)cc2)c1 [Example P170],6.00 to 7.00
6,CCOc1cncc(-c2ccc(NC(=O)C3(c4ccnc(NS(C)(=O)=O)n4)CCNCC3)nc2)n1 [Example P138],6.00 to 7.00
7,CC(C)Oc1cncc(-c2ccc(NC(=O)C(C)(C)c3ccnc(NS(C)(=O)=O)n3)c(F)c2)c1 [Example P77],5.00 to 6.00
8,O=C(Cc1ccnc(NS(=O)(=O)C2CC2)n1)Nc1ccc(-c2cncc(C(F)(F)F)c2)cc1 [Example P13],6.00 to 7.00
9,Cc1cc(-c2cncc(C(F)(F)F)n2)ccc1NC(=O)C(C)(C)c1ccnc(NS(C)(=O)=O)n1 [Example P79],6.00 to 7.00
10,CC(C)(C(=O)Nc1ccc(-c2cnccn2)cc1)c1cccc(NS(=O)(=O)C2CC2)n1 [Example P185],5.00 to 6.00
11,CCOc1cccc(-c2ccc(NC(=O)C(C)(C)c3ccnc(NS(=O)(=O)C4CC4)n3)cc2)c1 [Example P63],4.70 to 5.00
12,CC(C)(C(=O)Nc1ccc(-c2cccnc2)cc1F)c1ccnc(NS(=O)(=O)C2CC2)n1 [Example P36],5.00 to 6.00
13,O=C(Cc1ccnc(NS(=O)(=O)C2CC2)n1)Nc1ccc(-c2cncc(C(F)(F)F)n2)cc1F [Example P11],≥ 7.00
14,CCOc1cncc(-c2ccc(NC(=O)C(C)(C)c3ccnc(NS(=O)(=O)C4(C)CC4)n3)cc2)n1 [Example P69],6.00 to 7.00
15,CCC(C(=O)Nc1ccc(-c2cncc(Cl)c2)cn1)c1ccnc(NS(=O)(=O)C2CC2)n1 (stereo not shown) [Example P148],≥ 7.00
16,CC(C)(C(=O)Nc1ccc(-c2cncc(C#N)c2)cc1)c1ccnc(NS(=O)(=O)C2CC2)n1 [Example P52],6.00 to 7.00
17,O=C(Cc1ccnc(NS(=O)(=O)C2CC2)n1)Nc1ccc(-c2cncc(OCC(F)(F)F)c2)cc1 [Example P14],6.00 to 7.00
18,CCOc1cncc(-c2ccc(NC(=O)C(C)(C)c3ccnc(NS(=O)(=O)C(C)(C)C)n3)cc2)n1 [Example P82],5.00 to 6.00
19,CC(C)Oc1cncc(-c2ccc(NC(=O)C(C)(C)c3ccnc(NS(C)(=O)=O)n3)c(F)c2)n1 [Example P78],6.00 to 7.00
20,N#Cc1cncc(-c2ccc(NC(=O)Cc3cccc(NS(=O)(=O)C4CC4)n3)cc2)c1 [Example P168],6.00 to 7.00
21,"CCOc1cncc(-c2ccc(NC(=O)C(F)(CC)c3ccnc(NS(C)(=O)=O)n3)nc2)n1 (single isomer, unassigned) [Example P165]",≥ 7.00
22,CC(C)Oc1cncc(-c2ccc(NC(=O)C(C)(C)c3ccnc(NS(=O)(=O)C4CC4)n3)c(F)c2)c1 [Example P35],6.00 to 7.00
23,CCOc1cncc(-c2ccc(NC(=O)C(C)(C)c3cc(C(F)(F)F)nc(NS(=O)(=O)C4CC4)n3)cc2)n1 [Example P135],6.00 to 7.00
24,CC(C)(C(=O)Nc1ccc(-c2cccc(C(F)(F)F)c2)cc1)c1ccnc(NS(=O)(=O)C2CC2)n1 [Example P60],5.00 to 6.00
25,O=C(Cc1cncc(NS(=O)(=O)C2CC2)n1)Nc1ccc(-c2cccnc2)cc1 [Example P192],5.00 to 6.00
26,CC(C)(C(=O)Nc1ccc(-c2cncc(Cl)n2)cc1)c1cccc(NS(=O)(=O)C2CC2)n1 [Example P182],6.00 to 7.00
27,CCOc1cncc(-c2ccc(NC(=O)C3(c4cccc(NS(=O)(=O)C5CC5)n4)CCOCC3)nc2)n1 [Example P186],≥ 7.00

# Same assay, conditions: Table 24; ADP-Glo Max assay; read-out: CTPS1 (Human CTPS1 Enzyme Inhibition data grouped by potency range, IC50)
row,pIC50,Compound
1,≥ 7.00,CCOc1cncc(-c2ccc(NC(=O)C3(c4ccnc(NS(=O)(=O)C5CC5)n4)CC4(C3)OCCO4)nc2)n1 [Example P258]

# Same assay, conditions: Table 25; compounds where R1 is substituted by CN; read-out: CTPS1 (Human CTPS1 Enzyme Inhibition data grouped by potency range, IC50)
row,pIC50,Compound
1,≥ 7.00,"CCOc1cncc(-c2ccc(NC(=O)C3(c4ccnc(NS(=O)(=O)C5(C#N)CC5)n4)CCOCC3)nc2)n1 [Example P285, 4-(2-((1-cyanocyclopropane)-1-sulfonamido)pyrimidin-4-yl)-N-(5-(6-ethoxypyrazin-2-yl)pyridin-2-yl)tetrahydro-2H-pyran-4-carboxamide]"
